The target in this test is T1, IRAK4 (Homo sapiens, UniProt Q9NWZ3).
T1 construct: endogenous in cells; host or cells: THP-1 cells
T1 sequence (Q9NWZ3 1-460): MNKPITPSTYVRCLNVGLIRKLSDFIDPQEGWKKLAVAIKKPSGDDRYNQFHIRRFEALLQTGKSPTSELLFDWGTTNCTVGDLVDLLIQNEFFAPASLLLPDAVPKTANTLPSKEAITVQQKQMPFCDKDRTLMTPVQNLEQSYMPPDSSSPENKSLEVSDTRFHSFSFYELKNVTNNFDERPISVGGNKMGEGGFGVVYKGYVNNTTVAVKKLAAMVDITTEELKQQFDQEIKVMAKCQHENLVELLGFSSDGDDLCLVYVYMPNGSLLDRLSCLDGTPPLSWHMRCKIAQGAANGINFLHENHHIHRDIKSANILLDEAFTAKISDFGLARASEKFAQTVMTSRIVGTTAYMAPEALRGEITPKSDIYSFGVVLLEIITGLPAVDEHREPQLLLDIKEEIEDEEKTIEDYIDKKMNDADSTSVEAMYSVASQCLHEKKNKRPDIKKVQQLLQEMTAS
In words: ALE THP1 HTRF (Advanced Lipoxidation End Product THP1 Homogeneous Time Resolved Fluorescence). In kind it is cell-based. The conditions noted are these: THP1 cells. The method, then: For Homogenous Time Resolved Fluorescence (HTRF) assays, a Cisbio HTRF kit was used, which included: Lysis Buffer #1 4×, Blocking Reagent #3 100×, 20× Antibody 1 (Anti-IRAK4 d2), 20× Antibody 2 (Anti-IRAK4 k), and Detection Buffer.
4× Lysis Buffer was stored at 4° C. For use as 1× Lysis buffer, the 4× solution was diluted with de-ionized water (distilled water, Gibco Cat. #15230279) and 100× Blocking Reagent in a 1:3:0.04 volume ratio.
20× Antibody Solution aliquots were stored in −80° C. and the Detection Buffer was stored in 4° C. For use as a 1× Antibody Solution, the 20× Antibody Solution aliquot was diluted with Detection Buffer in a 1:19 volume ratio.
Cells were lysed at room temperature for 45 min with shaking. A BCA protein assay was performed and normalization was conducted to the desired total protein concentration with 1× lysis buffer. Next, 1× Antibody Solutions were prepared by adding 380 μL Detection Buffer to 20 μL 20× Antibody Solution aliquots and mixing well. 1× Antibody Solutions were combined 1:1 and briefly vortexed. For control wells, 20 μL 1× anti IRAK4-k Antibody Solution was saved. The 384-well plate (ProxiPlate-384 Plus, Perkin Elmer Cat. #6008289) was loaded by adding 4 μL of the mixed Antibody Solution to empty wells using a single channel repeater. Using a multi-channel repeater, 16 μL lysate was added per well, and any bubbles that were formed were popped with 20 μL pipette tips and Kimwipe edges. In column 10, triplicates of each control was prepared. In wells A10, B10, and C10, buffer control was prepared by adding 16 μL Lysis Buffer and 4 μL Detection Buffer. In wells D10, E10, and F10, cryptate control was prepared by adding 16 μL Lysis Buffer, 2 μL Detection Buffer, and 2 μL 1× anti IRAK4-k Antibody Solution. In wells G10, H10, and I10, a negative control was prepared by adding 16 μL Lysis Buffer and 4 μL mixed Antibody Solution. The plate was sealed with a clear seal and covered with an aluminum lid. The plate was spun down at 800 g for 5 min and incubated in the dark at room temperature overnight. The next day, the plate was spun down at 800 g for 5 min. The samples were analyzed by a plate reader (Envision, PerkinElmer) using the Desnor 384 HTRF program.
In general terms: TR-FRET usually uses a lanthanide donor and a delayed reading to cut background.
The term EC50 denotes the midpoint of the concentration-response curve. Lower therefore signals an effect from little substance. `N#Cc1cnc2c(cnn2-c2cc(NC3CCCC3)c(C(=O)NC3CCC(C(=O)NC4CCN(c5ccc(C6CCC(=O)NC6=O)cc5)CC4)CC3)cn2)c1` (stereo not drawn) [P-28]: the “ALE THP1 HTRF YMIN” value was determined as 36.6% and the EC50 amounted to 145 nM.
For `CC(C)(C)Nc1cc(-n2ncc3cc(C#N)cnc32)ncc1C(=O)NC1CCC(C(=O)N2CCN(c3ccc4c(c3)C(=O)N(C3CCC(=O)NC3=O)C4)CC2)CC1` (stereo not drawn) [P-26] the same measures were 22.3% and 24 nM.
The corresponding values for `N#Cc1cnc2c(cnn2-c2cc(NC3CC3)c(C(=O)N[C@H]3CC[C@H](CCN4CCC(c5ccc(C6(F)CCC(=O)NC6=O)cc5)CC4)CC3)cn2)c1` (single isomer, unassigned) [P-126] are 14.9% and 296 nM.
Consider `N#Cc1cnc2c(cnn2-c2cc(NC3CC3)c(C(=O)NC3CCC(NCC4CCN(c5ccc(C6CCC(=O)NC6=O)cc5)CC4)CC3)cn2)c1` (stereo not drawn) [P-102], for which the “ALE THP1 HTRF YMIN” value stood at 14.2% and the EC50 stood at 32 nM.
For `CNc1cc(-n2ncc3cc(C#N)cnc32)ncc1C(=O)NC1CCC(CCN2CCN(c3ccc(C4CCC(=O)NC4=O)cc3)CC2)CC1` (stereo not drawn) [P-86] the same measures were 11.8% and 90 nM.
Regarding `CC1(Nc2cc(-n3ncc4cc(C#N)cnc43)ncc2-n2cc([C@H]3CC[C@H](CCN4CCN(c5ccc(C6CCC(=O)NC6=O)cc5)CC4)CC3)nn2)CC1` (stereo partly drawn) [P-140], the “ALE THP1 HTRF YMIN” value came to 6.4% and the EC50 was 30 nM.
Consider `N#Cc1cc2ccn(-c3cc(NC4CC4)c(C(=O)NC4CCC(CCN5CCN(c6ccc(C7CCC(=O)NC7=O)cc6)CC5)CC4)cn3)c2nc1F` (stereo not drawn) [P-100], for which the “ALE THP1 HTRF YMIN” value is listed as 28.3% and the EC50 was found to be 1100 nM.
For `C[C@@H]1CN(c2ccc(C3CCC(=O)NC3=O)cc2)C[C@@H](C)N1CCC1CCC(NC(=O)c2cnc(-n3ncc4cc(C#N)cnc43)cc2NC2CCCC2)CC1` (stereo partly drawn) [P-68] the same measures were 19.3% and 136 nM.
For `C[C@H](C#N)Nc1cc(-n2ncc3cc(C#N)cnc32)ncc1C(=O)N[C@H]1CC[C@H](CCN2C[C@@H](C)N(c3ccc(C4CCC(=O)NC4=O)cc3)C[C@@H]2C)CC1` (stereo partly drawn) [P-151] the same measures were 6.0% and 8 nM.
In the case of `C[C@H]1CN(c2ccc(C3CCC(=O)NC3=O)cc2)C[C@H](C)N1CC[C@H]1CC[C@H](NC(=O)c2cnc(-n3ncc4cc(C#N)cnc43)cc2NC2CC2)CC1` (stereo partly drawn) [P-116], the “ALE THP1 HTRF YMIN” value turned out to be 8.3% and the response was half-maximal at 7 nM (EC50).
As for `N#Cc1cnc2c(cnn2-c2cc(NCC3CCCO3)c(C(=O)N[C@H]3CC[C@H](CCN4CCN(c5ccc(C6CCC(=O)NC6=O)cc5)CC4)CC3)cn2)c1` (stereo partly drawn) [P-113], the “ALE THP1 HTRF YMIN” value came to 18.7% and the midpoint of the response, the EC50, lay at 74 nM.
The corresponding values for `CN(C1CCN(c2ccc3c(c2)C(=O)N(C2CCC(=O)NC2=O)C3)CC1)[C@H]1CC[C@H](n2cc(-c3cnc(-n4ncc5cc(C#N)cnc54)cc3NC3CCCC3)nn2)CC1` (stereo partly drawn) [P-27] are 28.4% and 40 nM.
With `CC(F)(F)CNc1cc(-n2ncc3cc(C#N)cnc32)ncc1C(=O)NC1CCC(CCN2CCN(c3ccc(C4CCC(=O)NC4=O)cc3)CC2)CC1` (stereo not drawn) [P-65], the “ALE THP1 HTRF YMIN” value came to 7.3% and the EC50 is 10 nM.
The corresponding values for `N#Cc1cnc2c(ccn2-c2cc(NC3CC3)c(C(=O)NC3CCC(CN4CCC(CNc5ccc(C6CCC(=O)NC6=O)cc5)CC4)CC3)cn2)c1` (stereo not drawn) [P-42] are 27.6% and 123 nM.
Regarding `N#Cc1cnc2c(cnn2-c2cc(NCCC(F)(F)F)c(C(=O)N[C@H]3CC[C@H](CCN4CCN(c5ccc(C6CCC(=O)NC6=O)cc5)CC4)CC3)cn2)c1` (stereo partly drawn) [P-118], the “ALE THP1 HTRF YMIN” value is reported as 9.9% and it took 34 nM to reach a half-maximal effect (EC50).
The corresponding values for `O=C1CCC(c2ccc(N3CCN(CC[C@H]4CC[C@H](NC(=O)c5cnc(-n6ncc7cncnc76)cc5NC5CC5)CC4)CC3)cc2)C(=O)N1` (stereo partly drawn) [P-117] are 13.6% and 33 nM.
For `N#Cc1cnc2c(ccn2-c2cc(NC3CC3)c(C(=O)NC3CCC(CCN4CCN(c5ccc(C6CCC(=O)NC6=O)cc5)CC4)CC3)cn2)c1` (stereo not drawn) [P-49] the same measures were 10.9% and 21 nM.
For `N#Cc1cnc2c(cnn2-c2cc(NC3CCCC3)c(C(=O)N[C@H]3CC[C@H](CNC4CCN(c5ccc(C6CCC(=O)NC6=O)cc5)CC4)CC3)cn2)c1` (stereo partly drawn) [P-29] the same measures were 14.1% and 98 nM.
Turning to `N#Cc1cnc2c(cnn2-c2cc(NC3CCCC3)c(-n3cc([C@H]4CC[C@H](CCN5CCN(c6ccc(C7CCC(=O)NC7=O)cc6)CC5)CC4)nn3)cn2)c1` (stereo partly drawn) [P-87, 1-[4-(cyclopentylamino)-5-[4-[4-[2-[4-[4-(2,6-dioxo-3-piperidyl)phenyl]piperazin-1-yl]ethyl]cyclohexyl]triazol-1-yl]-2-pyridyl]pyrazolo[3,4-b]pyridine-5-carbonitrile], the “ALE THP1 HTRF YMIN” value is 10.5% and the EC50 worked out at 26 nM.
The corresponding values for `CS(=O)(=O)N1CCC(Nc2cc(Nc3ccc4ncsc4c3)ncc2C(=O)NC2CCC(C(=O)N3CCN(c4ccc5c(c4)C(=O)N(C4CCC(=O)NC4=O)C5=O)CC3)CC2)CC1` (stereo not drawn) [P-4, 6-(1,3-benzothiazol-6-ylamino)-N-[4-[4-[2-(2,6-dioxo-3-piperidyl)-1,3-dioxo-isoindolin-5-yl]piperazine-1-carbonyl]cyclohexyl]-4-[(1-methylsulfonyl-4-piperidyl)amino]pyridine-3-carboxamide] are 35.8% and 47 nM.
For `CC(Nc1cc(-n2ncc3cc(C#N)cnc32)ncc1C(=O)NC1CCC(CCN2CCN(c3ccc(C4CCC(=O)NC4=O)cc3)CC2)CC1)C(F)(F)F` (stereo not drawn) [P-77] the same measures were 11.3% and 28 nM.
For `CC(C)(C#N)Nc1cc(-n2ncc3cc(C#N)cnc32)ncc1C(=O)N[C@H]1CC[C@H](CCN2CCN(c3ccc(C4CCC(=O)NC4=O)cc3)CC2)CC1` (stereo partly drawn) [P-115] the same measures were 38.9% and more than 5000 nM.
With `COc1cc(N2CCN(CCC3CCC(NC(=O)c4cnc(-n5ncc6cc(C#N)cnc65)cc4NC4CC4)CC3)CC2)ccc1C1CCC(=O)NC1=O` (stereo not drawn) [P-79], the “ALE THP1 HTRF YMIN” value amounted to 12.2% and a half-maximal effect (EC50) was put at 43 nM.
Take `N#Cc1cnn2c(-c3cc(NC4CC4)c(C(=O)N[C@H]4CC[C@H](CCN5CCN(c6ccc(C7CCC(=O)NC7=O)cc6)CC5)CC4)cn3)ccc2c1` (stereo partly drawn) [P-109]: the “ALE THP1 HTRF YMIN” value is 10.7% and the EC50 was 8 nM.
For `N#Cc1cnc2c(cnn2-c2cc(NC3CC3)c(C(=O)NC3CCC(CCN4CCN(c5ccc([C@H]6CCC(=O)NC6=O)cc5)CC4)CC3)cn2)c1` (stereo partly drawn) [P-95] the same measures were 9.9% and 15 nM.
The corresponding values for `N#Cc1cnc2c(ccn2-c2cc(NC3CCCC3)c(C(=O)NC3CCC(C(=O)N4CCN(c5ccc6c(c5)C(=O)N(C5CCC(=O)NC5=O)C6=O)CC4)CC3)cn2)c1` (stereo not drawn) [P-6] are 30.4% and 18 nM.
For `CC([C@H]1CC[C@H](NC(=O)c2cnc(-n3ncc4cc(C#N)cnc43)cc2NC2CCCC2)CC1)N1CCN(c2ccc3c(c2)C(=O)N(C2CCC(=O)NC2=O)C3)CC1` (stereo partly drawn) [P-36] the same measures were 10.7% and 47 nM.
In the case of `N#Cc1cnc2c(cnn2-c2cc(NC3CCCC3)c(C(=O)N[C@H]3CC[C@H](CCN4CCN(c5ccc6c(c5)C(=O)N(C5CCC(=O)NC5=O)C6=O)CC4)CC3)cn2)c1` (stereo partly drawn) [P-61], the “ALE THP1 HTRF YMIN” value came out at 9.2% and the EC50 was 101 nM.
As to `C[C@@H]1CN(c2ccc(C3CCC(=O)NC3=O)cc2)C[C@H](C)N1CCC1CCC(NC(=O)c2cnc(-n3ncc4cc(C#N)cnc43)cc2NC2CCCC2)CC1` (stereo partly drawn) [P-57], the “ALE THP1 HTRF YMIN” value was determined as 9.7% and it took 194 nM to reach a half-maximal effect (EC50).
As for `C[C@H](C#N)Nc1cc(-n2cc(F)c3cc(C#N)cnc32)ncc1C(=O)N[C@H]1CC[C@H](CCN2CCN(c3ccc(C4CCC(=O)NC4=O)cc3)CC2)CC1` (stereo partly drawn) [P-145], the “ALE THP1 HTRF YMIN” value was 11.0% and it took 35 nM to reach a half-maximal effect (EC50).
